Data as given in publication PMC3515674 (Angewandte Chemie (International ed. in English), 2011).
Like-named read-outs stand apart in the source and are kept apart here. Ends that are not written are not given here. MCA = 7-methoxycoumarin-4-acetic acid

Molecular target: T1, purified human α2M (Homo sapiens, UniProt P01023)
T1 sequence (P01023 24-1474): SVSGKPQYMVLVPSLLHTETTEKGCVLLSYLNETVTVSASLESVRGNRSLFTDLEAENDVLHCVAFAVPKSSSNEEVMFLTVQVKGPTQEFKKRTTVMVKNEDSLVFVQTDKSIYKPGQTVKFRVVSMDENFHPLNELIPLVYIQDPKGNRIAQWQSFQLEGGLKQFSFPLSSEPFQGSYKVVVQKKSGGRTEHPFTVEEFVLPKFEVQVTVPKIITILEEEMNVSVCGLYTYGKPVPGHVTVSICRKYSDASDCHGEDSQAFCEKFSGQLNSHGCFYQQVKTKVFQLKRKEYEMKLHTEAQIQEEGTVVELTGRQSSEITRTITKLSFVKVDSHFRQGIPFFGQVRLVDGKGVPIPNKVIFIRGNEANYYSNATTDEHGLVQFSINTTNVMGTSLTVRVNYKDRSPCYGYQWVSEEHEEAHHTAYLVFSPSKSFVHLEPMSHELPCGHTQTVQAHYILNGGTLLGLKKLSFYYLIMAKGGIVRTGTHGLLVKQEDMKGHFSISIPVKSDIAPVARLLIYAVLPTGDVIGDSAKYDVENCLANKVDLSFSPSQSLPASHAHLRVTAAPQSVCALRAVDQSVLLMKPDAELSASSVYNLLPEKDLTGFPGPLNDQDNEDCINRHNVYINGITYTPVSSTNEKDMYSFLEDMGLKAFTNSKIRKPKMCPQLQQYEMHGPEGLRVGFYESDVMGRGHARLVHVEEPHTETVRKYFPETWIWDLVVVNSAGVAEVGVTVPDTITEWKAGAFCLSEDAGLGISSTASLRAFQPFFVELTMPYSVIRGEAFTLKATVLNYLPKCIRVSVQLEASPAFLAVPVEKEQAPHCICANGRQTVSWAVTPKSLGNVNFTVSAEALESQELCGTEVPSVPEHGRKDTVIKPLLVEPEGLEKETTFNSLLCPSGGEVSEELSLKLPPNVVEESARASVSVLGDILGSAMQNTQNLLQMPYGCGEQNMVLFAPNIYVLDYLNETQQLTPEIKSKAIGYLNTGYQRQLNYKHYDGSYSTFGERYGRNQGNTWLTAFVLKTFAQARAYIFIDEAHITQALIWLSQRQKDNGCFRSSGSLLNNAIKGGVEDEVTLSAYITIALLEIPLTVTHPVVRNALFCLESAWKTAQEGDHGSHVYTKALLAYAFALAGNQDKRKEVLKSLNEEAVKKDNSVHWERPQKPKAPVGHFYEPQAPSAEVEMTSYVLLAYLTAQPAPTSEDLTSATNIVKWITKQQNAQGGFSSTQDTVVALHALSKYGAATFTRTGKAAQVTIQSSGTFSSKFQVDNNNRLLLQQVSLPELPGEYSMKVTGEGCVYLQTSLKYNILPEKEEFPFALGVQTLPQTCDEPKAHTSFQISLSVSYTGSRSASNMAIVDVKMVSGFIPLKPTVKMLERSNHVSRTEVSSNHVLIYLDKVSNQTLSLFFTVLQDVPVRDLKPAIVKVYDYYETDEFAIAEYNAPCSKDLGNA
Type: biochemical

| Molecule | inhibition of α2M deacylating activity [%] | inhibition of α2M deacylating activity (100 µM) [%] | Km [µM] | kcat [s⁻¹] |
| --- | --- | --- | --- | --- |
| O=[N+]([O-])c1ccc(OP(=O)(O)Oc2ccc([N+](=O)[O-])cc2)cc1 [BNPP, bis-p-nitrophenyl-phosphate] | 40 | 0 | – | – |
| ghrelin-MCA: full length acylated ghrelin containing the fluorophore 7-methoxycoumarin-4-acetic acid (MCA) at the C-terminus (GSSFLSPEHQRVQQRKESKKPPAKLQPR-{MCA}; also: octanoyl acylated, position not given here; UniProt Q9UBU3 24-51, looked up) | – | – | 24 ± 3 | 0.000383 ± 1.7e-05 |
